According to PMC1073692, “An Unbiased Cell Morphology–Based Screen for New, Biologically Active Small Molecules” (PLoS Biology, 2005):
≈ marks a conversion by molar mass, not a printed value. Where “and” joins values, the source holds several entries; their conditions need not be identical. Equal entries are not always repeated. Entries after “also recorded” stand apart in the source; their conditions may differ. Where two headings read alike, the source gives them in different places.

What was measured:
p38-α = molecular target: T1, p38-α (Homo sapiens, UniProt Q16539); assay: Kinase disk assay (32P transfer to peptide), p38; assay type: biochemical; conditions: Table S3; […] 100 µM substrate, 11 nM [γ-32P]ATP
T1 construct: made in house; host or cells: bacteria
T1 sequence (Q16539 whole entry): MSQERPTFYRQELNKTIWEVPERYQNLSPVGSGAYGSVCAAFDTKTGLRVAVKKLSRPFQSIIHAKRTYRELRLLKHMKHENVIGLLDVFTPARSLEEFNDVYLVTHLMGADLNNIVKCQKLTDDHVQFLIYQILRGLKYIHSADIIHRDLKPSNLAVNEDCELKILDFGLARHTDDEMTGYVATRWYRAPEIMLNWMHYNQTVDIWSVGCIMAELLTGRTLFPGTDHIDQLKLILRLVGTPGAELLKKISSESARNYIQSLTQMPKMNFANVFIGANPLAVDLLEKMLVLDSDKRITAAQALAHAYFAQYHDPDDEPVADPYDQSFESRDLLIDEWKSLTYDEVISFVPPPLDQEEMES
Description: (§1) Fyn and p38 kinases were expressed in bacteria and purified as previously described. Protein kinase A and Protein kinase B were obtained commercially (Upstate Cell Signaling Specialties Charlottesville, Virginia, United States). […] Reaction mixtures (27 μl) were spotted onto a phosphocellulose disk and washed with 0.5% H3PO4. The transfer of ^32P was measured by standard scintillation counting. […] When the IC50 value fell between two measured concentrations, it was calculated based on the assumption of an inversely proportional relationship between inhibitor concentration and counts per minute between the two data points.
(§2) IC50 values against Fyn and p38 are given (left), and percentage activity of PKA and PKB in presence of the inhibitors are given (right). Kinase activity was determined using a standardized disk assay based on the P^32 transfer to a synthetic peptide (See Materials and Methods). […] Peptide subrate sequences for each kinase are shown below:
[…] (100 µM) was used as the substrate for p38.

A549 cells [1] = assay: PI-stained cell assay, serum-withdrawal-induced apoptosis; assay type: cell-based, human; conditions: for Enhancement of induction of apoptosis by cell stresses: A549, interferon-γ + Fas ligand, H2O2, interleukin-1β, serum withdrawal, interleukin-1β + serum withdrawal, data not shown; for Protection against serum-withdrawal-induced apoptosis (PI staining): 65 h following serum withdrawal
From the text: We chose to focus on signals that induce apoptosis in A549 adenocarcinoma cells because this endpoint is important for many cell-fate decisions, including those relevant to cancer and inflammation. CBR1 has been directly implicated in redox reactions leading to H2O2 generation, a known stimulus for apoptosis. A549 cells were subjected to a wide range of cell stresses previously shown to induce apoptosis: (1) interferon-γ + Fas ligand, (2) H2O2, (3) interleukin-1β, (4) serum withdrawal, or (5) interleukin-1β + serum withdrawal.
(§3) Cell viability was determined by the alamarBlue reagent reduction assay in a 96-well culture plate, measuring the absorbance at 570 and 600 nm spectrophotometrically. The amount of PI-stained cells was estimated by measuring fluorescence following incubation with PI (5 μg/ml). For both experiments, data are shown as the percentages of nontreated control cells.

human CBR1 = molecular target: T2, human CBR1 (Homo sapiens, UniProt P16152); assay: CBR1 assay (NADPH-dependent reduction of menadione, spectrophotometric)
T2 sequence (P16152 1-277): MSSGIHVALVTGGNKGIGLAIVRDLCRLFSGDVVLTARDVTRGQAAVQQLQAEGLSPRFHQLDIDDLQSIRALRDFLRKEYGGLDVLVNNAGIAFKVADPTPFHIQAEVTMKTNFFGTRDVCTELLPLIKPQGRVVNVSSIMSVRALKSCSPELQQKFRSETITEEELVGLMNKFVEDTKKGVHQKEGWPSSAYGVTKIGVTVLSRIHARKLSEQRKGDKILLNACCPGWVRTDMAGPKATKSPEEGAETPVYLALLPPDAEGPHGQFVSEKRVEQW
Description: CBR1 activity was determined spectrophotometrically at 25 °C. The standard assay mixture consisted of 50 mM sodium phosphate (pH 6.8), 200 μM NADPH, and 200 μM menadione in a total volume of 1 ml. Compounds were dissolved in DMSO as 100× stock solutions. Reactions were initiated by the addition of enzyme, and initial rates were determined by monitoring the disappearance of NADPH at 340 nM. Controls without substrates or enzyme were routinely included.

protein kinase A = molecular target: T3, protein kinase A (Homo sapiens, UniProt P17612); assay: Kinase disk assay (32P transfer to peptide), PKA; assay type: biochemical; conditions: remaining kinase activity
T3 construct: purchased Upstate Cell Signaling Specialties
Description: as §1, §2
bzRRASLG (100 µM) was used as the susbtrate for PKA.

protein kinase B = molecular target: T4, protein kinase B (Homo sapiens, UniProt P31749); assay: Kinase disk assay (32P transfer to peptide), PKB; assay type: biochemical; conditions: 25 min, read-out: Relative activity @ 1 µM inhibitor PKB
T4 construct: purchased Upstate Cell Signaling Specialties
T4 sequence (P31749 whole entry, species assumed): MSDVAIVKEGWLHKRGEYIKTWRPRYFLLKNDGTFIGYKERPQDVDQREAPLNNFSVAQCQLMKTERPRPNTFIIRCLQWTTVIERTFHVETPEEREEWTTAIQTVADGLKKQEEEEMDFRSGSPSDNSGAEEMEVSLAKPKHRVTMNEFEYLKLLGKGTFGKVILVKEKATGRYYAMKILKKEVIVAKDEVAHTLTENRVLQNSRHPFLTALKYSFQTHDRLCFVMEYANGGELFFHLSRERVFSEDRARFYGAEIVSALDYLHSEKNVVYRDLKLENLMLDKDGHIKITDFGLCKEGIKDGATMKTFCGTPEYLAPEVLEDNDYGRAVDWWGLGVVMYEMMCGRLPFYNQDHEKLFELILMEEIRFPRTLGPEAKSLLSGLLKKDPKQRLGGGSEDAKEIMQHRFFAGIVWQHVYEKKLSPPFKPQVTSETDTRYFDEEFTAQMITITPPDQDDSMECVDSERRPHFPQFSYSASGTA
Description: as §1, §2
bzRPRTSSF (100 µM) was used as the susbtrate for PKB.

[2] = system: A549, DU145, HUVEC, SF268 and SKOV3 cells; assay: Cytometrix cell morphology-based screen; parameters: species or system human; conditions: for Cytometrix phenotype (PCA trajectory): 6 nM to 40 μM; for EC50: Homo sapiens, read-out: Approximate EC50 (distance in PCA space from DMSO controls); for Potency in Cytometrix relative to parent compound (fold lower): linker analog vs parent, data not shown
Description: SKOV3 (ovarian epithelial cancer), A549 (lung epithelial cancer), and SF268 (central nervous system epithelial cancer) were chosen for their broad genetic diversity and obtained from the National Institutes of Health. These human cells were grown and maintained in RMPI medium (Mediatech, Herndon, Virginia, United States) with 5% fetal calf serum (FBS, HyClone, Logan, Utah, United States). DU145 (prostate epithelial cancer) cells ( ATTC, Manassas, Virginia, United States) were maintained in MEM with 5% FBS. HUVEC cells (VEC Technologies, Rensselaer, New York, United States) were maintained in MCDB131 medium (VEC Technologies) with 10% FBS. For the assays 1,000–1,800 trypsinized (Mediatech) cells per well (depending on cell type) were plated in 384-well plates (Corning Costar, Acton, Massachusetts, United States) using a Multidrop (Thermo Labsystems, Beverly, Massachusetts, United States) and incubated for 24 h, the approximate doubling time. Six cell plates were made for each cell line.
Compound stocks were maintained in DMSO. Compound information was stored in ActivityBase (ID Business Solutions, Guildford, United Kingdom). Compounds were serially diluted in 384-well drug plates to achieve eight concentrations diluting 3× in DMSO between wells using a Multimek (Beckman Coulter, Fullerton, California, United States). Wells were reserved on every drug plate for negative and positive controls. Negative-control wells contained DMSO only and the positive-control wells received a titration of paclitaxel, a tubulin stabilizer (Sigma-Aldrich-Fluka, St. Louis, Missouri, United States). […] Small molecules were tested at 40 μM on cells based on the logic that cellular effects on cells at […] concentration are most likely nonspecific and that we would most likely get a full-dose response after eight 3-fold dilutions (6 nM to 40 μM final concentrations).
Compounds were added to cell plates from drug plates. Compound mixed with medium was added to the cells to achieve a 0.4% DMSO concentration on prepared cell plates using a PlateTrak (CCS Packard, Torrance, California, United States). Treated cells were incubated for another 24 h, the compound exposure time.
Cells were stained for visualization of the nuclei, Golgi apparatus, and microtubules. Cells were fixed with 4% formaldehyde (Polysciences, Warrington, Pennsylvania, United States) for 1 h; washed in TBS (Teknova, Half Moon Bay, California, United States); blocked in 0.01% Triton X-100 (ICN Biomedicals, Irvine, California, United States) and 1% BSA in TBS (Teknova) and then left to incubate for 1 h; stained with 0.01% Triton X-100, 0.1% BSA, 5 μg/ml Hoechst 33342 (Molecular Probes, Eugene, Oregon, United States), 5 μg/ml FITC-Lectin Lens Culinaris (Sigma-Aldrich-Fluka), and 3 μg/ml Rhodamine Red–labeled monoclonal antibody DM1α (courtesy of Tim Stearns) for 1 h; and then washed in TBS. All of these steps were performed with a PlateTrak using an ELx405 microplate washer (Bio-Tek Instruments, Winooski, Vermont, United States). This was done in triplicate for each cell line.
Cells were imaged on an inverted Axiovert 100M epifluorescent microscope (Carl Zeiss, Oberkochen, Germany) with a 5× objective and a Xenon lamp (Sutter Instruments, Novato, California, United States). A 5× magnification was chosen (rather than 40×) primarily as a function of the need to acquire a large number of individual cells in order to gather statistically relevant data on relatively rare subpopulations. The number of cells in a randomly acquired 40× image is not sufficient to make meaningful statistical measurements across many cells. Metamorph (Universal Imaging, Downingtown, Pennsylvania, United States) was used to control the motorized x, y, z stage (Prior Scientific, Rockland, Massachusetts, United States) that moved the plate to each well, autofocused, and took three successive fluorescent images with an Orca 100 camera (Hamamatsu, Hamamatsu City, Japan). […]

Fyn = molecular target: T5, Fyn (Homo sapiens, UniProt P06241); assay: Kinase disk assay (32P transfer to peptide), Fyn; assay type: biochemical
T5 construct: made in house; host or cells: bacteria
T5 sequence (P06241 whole entry, species assumed): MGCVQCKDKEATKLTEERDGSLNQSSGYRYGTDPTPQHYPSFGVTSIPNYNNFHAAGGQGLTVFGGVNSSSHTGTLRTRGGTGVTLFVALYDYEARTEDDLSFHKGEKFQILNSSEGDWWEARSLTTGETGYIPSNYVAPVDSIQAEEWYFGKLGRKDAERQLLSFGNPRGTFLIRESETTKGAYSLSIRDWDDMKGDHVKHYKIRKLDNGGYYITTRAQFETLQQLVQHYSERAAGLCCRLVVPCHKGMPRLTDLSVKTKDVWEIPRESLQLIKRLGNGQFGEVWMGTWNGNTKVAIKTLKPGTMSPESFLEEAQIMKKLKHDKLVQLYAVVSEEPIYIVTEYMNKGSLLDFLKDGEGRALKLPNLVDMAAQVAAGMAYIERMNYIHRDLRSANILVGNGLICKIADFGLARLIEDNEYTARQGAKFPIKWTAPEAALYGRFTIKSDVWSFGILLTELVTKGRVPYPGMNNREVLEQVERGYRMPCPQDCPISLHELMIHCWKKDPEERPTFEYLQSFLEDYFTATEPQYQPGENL
Description: as §1, §2
[…] (100 µM) was used as the substrate for Fyn.

A549 cells [3] = assay: Cell viability assay (alamarBlue reduction), daunorubicin combination; assay type: cell-based, human; conditions: for Cytotoxicity on A549 cells when used alone: 8 μM; for Enhancement of daunorubicin-mediated A549-cell killing: 8 μM compound with 440 nM daunorubicin
From the text: To test this hypothesis, we measured the ability of hydroxy-PP-Me and PP-L to block CBR1-mediated metabolism of daunorubicin in A549 cells using cell killing as a measure of the cellular status of daunorubicin metabolism. […] Hydroxy-PP-Me induced a 25% enhancement of daunorubicin-mediated A549-cell killing consistent with its ability to inhibit CBR1-mediated daunorubicin metabolism. […] Although the observed 25% enhancement of daunorubicin-mediated cell killing is modest, the hydroxy-PP-Me dose dependence (Figure 5B) of this effect is further evidence that it is CBR1 mediated rather than a general toxic response.
A549 cells were purchased from ATCC and cultured in the F-12K medium with 10% of FBS. Cells were maintained at 37 °C in an atmosphere of 5% CO2. Adherant cells were released for passaging using an isotonic Trypsin solution (0.25% Trypsin, 0.02% Versene). Rabbit anti-human CBR1 antibody was obtained from Dr. Tsuchida. The CBR expression vector, pET-11aCR, was obtained from Dr. Wermuth.
as §3

[4] = Solubility limit in the CBR1 assay; assay type: physicochemical
[5] = IC50 against CBR1, 200 μM NADPH, 200 μM menadione, pH 6.8, 25 °C
[6] = 1 µM inhibitor, remaining kinase activity
[7] = read-out: IC50 against Fyn (Figure 3)
[8] = Table S3, LEEIYGEFKKK 100 µM substrate, 11 nM [γ-32P]ATP, read-out: IC50 (nM) Fyn

IC50 (p38-α) [nM]	IC50 (human CBR1; [5]) [µM]	Relative activity @ 1 µM inhibitor PKA (protein kinase A) [%]	activity at 1 µM (protein kinase B; [6]) [%]	IC50 (Fyn; [7])	SMILES	Protection against serum-withdrawal-induced apoptosis (PI staining) (A549 cells [1]; A549 cells)	Cytometrix phenotype (PCA trajectory) ([2]; 24 h, five cell types)	other results
17000	0.788	110	91	5 nM	CC(C)(C)n1nc(-c2cccc(O)c2)c2c(N)ncnc21 [hydroxy-PP, 3-(1-tert-butyl-4-amino-1H-pyrazolo[3,4-d]pyrimidin-3-yl)phenol]	able to block A549-cell apoptosis	distinct from the phenotypes induced by kinase inhibitors and the microtubule depolymerization inhibitors	Enhancement of induction of apoptosis by cell stresses (A549 cells [1]): no enhancement; IC50 (human CBR1; IC50 against CBR1, re-screen of the screening collection, data not shown): < 1 µM; EC50 ([2]; 24 h treatment, five cell types, concentration of Figure 1D, called approximately the EC50): ~0.4 µM
					CC(=O)O[C@H]1C(=O)[C@@]2(C)[C@H]([C@H](OC(=O)c3ccccc3)[C@]3(O)C[C@H](OC(=O)[C@H](O)[C@@H](NC(=O)c4ccccc4)c4ccccc4)C(C)=C1C3(C)C)[C@]1(OC(C)=O)CO[C@@H]1C[C@@H]2O [paclitaxel, reference compound]		pronounced and highly reproducible trajectory	
					CCOCCn1nc(-c2cccc(O)c2)c2c(N)ncnc21 [hydroxy-PP-L]	protects A549 cells against serum-withdrawal-induced apoptosis, although to a lesser extent than hydroxy-PP-Me		Protection against serum-withdrawal-induced apoptosis (PI staining) (A549 cells [1]; A549 cells, listed as Hydroxy-PP-L): dose-dependent decrease in PI staining; Potency in Cytometrix relative to parent compound (fold lower) [2]: approximately 5 fold
					CCOCCn1nc(-c2ccccc2)c2c(N)ncnc21 [PP-L]	does not		Cytotoxicity on A549 cells when used alone (A549 cells [3]): minimal cytotoxicity; Enhancement of daunorubicin-mediated A549-cell killing (A549 cells [3]): no enhancement of cell killing; Potency in Cytometrix relative to parent compound (fold lower) [2]: approximately 5 fold
					CC(C)(C)n1nc(-c2ccc(Cl)cc2)c2c(N)ncnc21 [PP2, 1-tert-butyl-3-(4-chlorophenyl)-1H-pyrazolo[3,4-d]pyrimidin-4-amine, reference compound]			activity at 1 µM (protein kinase B): 103%; EC50 ([2]; 24 h): ~129 µM
> 50000	0.759	106	95	70000 nM and > 70000 nM	CNc1ncnc2c1c(-c1cccc(O)c1)cn2C(C)C [hydroxy-PP-Me, 3-(7-isopropyl-4-(methylamino)-7H-pyrrolo[2,3-d]pyrimidin-5yl)phenol]	dose-dependent decrease in PI staining; also recorded: almost completely protected against apoptosis		Enhancement of induction of apoptosis by cell stresses (A549 cells [1]): no enhancement; Apoptosis induced by serum withdrawal blocked (A549 cells [1]; A549 cells): more than 90%; Cytotoxicity on A549 cells when used alone (A549 cells [3]): minimal cytotoxicity; Enhancement of daunorubicin-mediated A549-cell killing (A549 cells [3]): 25%; Cell viability with concomitant daunorubicin treatment (A549 cells [3]; 1–8 μM compound plus daunorubicin): dose-dependent decrease in cell viability; IC50 (Fyn; [8]): > 50000 nM
4000	> 200	92	92	50 nM	CC(C)(C)n1nc(-c2ccccc2)c2c(N)ncnc21 [PP, 1-tert-butyl-3-phenyl-1H-pyrazolo[3,4-d]pyrimidin-4-amine, reference compound]		phenotypic profile comparable to PP2	Inhibition of CBR1 activity (human CBR1; up to solubility limit of 200 μM): no inhibition; solubility [4]: 200 µM (≈ 53.5 µg/mL); IC50 (Fyn; [8]): 110 nM
					COC(=O)[C@@]1(O)C[C@H]2O[C@]1(C)n1c3ccccc3c3c4c(c5c6ccccc6n2c5c31)C(=O)NC4 [K252a, reference compound]		dose-dependent morphological changes in A549, DU145, HUVEC, and SF268 cells but not SKOV3 cells	
					COc1cccc2c1C(=O)c1c(O)c3c(c(O)c1C2=O)C[C@@](O)(C(C)=O)C[C@@H]3O[C@H]1C[C@H](N)[C@H](O)[C@H](C)O1 [daunorubicin, reference compound]			IC50 (A549 cells [3]; Homo sapiens, A549, read-out: Approximate IC50 for cell killing as a single agent): ~0.44 µM
